How the values were obtained:
Assay in all cases: relative viability (nuclei count vs DMSO), 5 days (fraction); higher = more cells survive
Sulindac = compound: CC1=C(CC(=O)O)c2cc(F)ccc2/C1=C\c1ccc([S+](C)[O-])cc1 [Sulindac]
Summary of the method: (§1)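 Lung cancer cell lines in 1536-well plates were kept overnight at 37 °C, then pinned with five library-drug doses (not always all listed) spaced by √10 on vehicle-anchored plates. After 5 days without medium change, cells were fixed, permeabilised and Hoechst-stained in one step, imaged at 4×, and nuclei were counted with MetaXpress. Viability is treated-well nuclei divided by vehicle-well nuclei, taken as the median over plates. Plates passed only with control CV below 25% and at least one doubling.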

5-Fluorouracil = compound: O=c1[nH]cc(F)c(=O)[nH]1 [5-Fluorouracil]
Summary of the method: as §1

Staurosporine = compound: CN[C@@H]1C[C@H]2O[C@@](C)([C@@H]1OC)n1c3ccccc3c3c4c(c5c6ccccc6n2c5c31)C(=O)NC4 [Staurosporine]
Summary of the method: as §1

Sulindac + Alpelisib = compound: CC1=C(CC(=O)O)c2cc(F)ccc2/C1=C\c1ccc([S+](C)[O-])cc1 [Sulindac] + Cc1nc(NC(=O)N2CCC[C@H]2C(N)=O)sc1-c1ccnc(C(C)(C)C(F)(F)F)c1 [Alpelisib] (partner 2 µM)
Summary of the method: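 Values are medians from duplicate plates. Each reflects relative viability, defined as the nuclei count of treated wells over that of vehicle wells. Lung cancer cell lines in 1536-well plates were pin-tool dosed one day after seeding with one drug alone or with a fixed anchor-drug dose plus five library-drug doses (not always all listed) in √10 steps, then fixed, stained and imaged at 4× after 5 days.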

| Cell Line | relative viability (Sulindac; 0.08 µM) | relative viability (Sulindac; 0.253 µM) | relative viability (Sulindac; 0.8 µM) | relative viability (Sulindac; 2.53 µM) | relative viability (Sulindac; 8 µM) | relative viability (5-Fluorouracil; 0.02 µM) | relative viability (5-Fluorouracil; 0.2 µM) | relative viability (5-Fluorouracil; 0.6325 µM) | relative viability (5-Fluorouracil; 2 µM) | relative viability (Staurosporine; 0.005 µM) | relative viability (Staurosporine; 0.01581 µM) | relative viability (Staurosporine; 0.05 µM) | relative viability (Staurosporine; 0.1581 µM) | relative viability (Staurosporine; 0.5 µM) | relative viability (Sulindac + Alpelisib; first compound 0.08 µM) | relative viability (Sulindac + Alpelisib; first compound 0.253 µM) | relative viability (Sulindac + Alpelisib; first compound 0.8 µM) | relative viability (Sulindac + Alpelisib; first compound 2.53 µM) | relative viability (Sulindac + Alpelisib; first compound 8 µM) |
| --- | --- | --- | --- | --- | --- | --- | --- | --- | --- | --- | --- | --- | --- | --- | --- | --- | --- | --- | --- |
| NCI-H1755 | 1.1 | 1.09 | 1.01 | 1.08 | 1.06 | 1.02 | 0.994 | 0.356 | 0.304 | 0.829 | 0.47 | 0.319 | 0.191 | 0.213 | 1.17 | 1.06 | 0.874 | 0.935 | 1 |
| NCI-H650 | 1.1 | 1.04 | 0.91 | 0.849 | 1.27 | 0.904 | 0.648 | 0.411 | 0.381 | 0.63 | 0.321 | 0.236 | 0.229 | 0.252 | 1.05 | 1.1 | 0.578 | 1.02 | 1.17 |
| NCI-H1944 | 0.997 | 1.03 | 0.908 | 0.904 | 1.11 | 0.91 | 0.905 | 0.293 | 0.195 | 0.983 | 0.699 | 0.567 | 0.353 | 0.246 | 0.745 | 0.883 | 0.754 | 0.853 | 0.856 |
| LK-2 | 1.23 | 1.06 | 0.78 | 0.738 | 1.21 | 1.16 | 0.989 | 0.8 | 0.574 | 1.17 | 1.06 | 0.874 | 0.366 | 0.243 | 1.42 | 1.14 | – | – | 1.38 |
| HCC-15 | 1.14 | 1.07 | 0.843 | 0.986 | 1.13 | 1.04 | 1.11 | 0.711 | 0.413 | 0.92 | – | 0.636 | 0.137 | 0.119 | 0.989 | 0.957 | 0.813 | 0.828 | 0.968 |
| PC-14 | 1.11 | 1.14 | 0.786 | 1.08 | 1.18 | 1.02 | 1.13 | 0.898 | 0.552 | 0.691 | 0.404 | 0.152 | 0.0788 | 0.0565 | 0.986 | 1.16 | – | 1.13 | 1 |
| HOP-62 | 1.17 | 1.13 | 0.926 | 1.13 | 1.09 | 1.03 | 1 | 0.971 | 0.877 | 0.83 | 0.298 | 0.183 | 0.138 | 0.109 | 1.15 | 0.994 | 0.842 | 0.963 | 1.21 |
| Calu-6 | 1.11 | 1.03 | 0.835 | 1.04 | 1.22 | 1.07 | 1.04 | 0.872 | 0.508 | 0.912 | 0.553 | 0.41 | 0.126 | 0.0704 | 1.06 | 1.09 | 0.774 | 1.08 | 1.23 |
| NCI-H322M | 0.951 | 0.921 | 0.869 | 0.903 | 0.989 | 0.954 | 0.923 | 0.791 | 0.651 | 1.13 | 0.491 | 0.58 | 0.387 | 0.344 | 0.644 | 0.777 | 0.652 | 0.848 | 0.928 |
